Assay results as given in patent US4281136A, “2-Alkyl-3-haloisothiazolium salts and their derivatives” (Givaudan Corporation, priority 1978, dated 1981).
Converted amounts (≈) assume the structure as drawn. Like-named read-outs stand apart in the source and are kept apart here.

Experiments:
[1] = test system: Aureobasidium pullulans; assay: preservative for latex paints; assay type: cell-based; conditions: for zone of inhibition at 0.25 % / zone of inhibition at 0.5 %: Aureobasidium pullulans, 504 h; for Surface (growth on the surface of painted square): none, medium or heavy; for Zone (zone of inhibition): listed as CH3, Cl, Cl, O3SOMe
Protocol: Various quantities of the chemical were incorporated into a white exterior vinyl acetate paint. Whatman #30 filter paper was painted with one coat of paint on each side. One inch squares were cut and placed in Petri dishes on a malt agar.
The surface of both the agar and the painted squares were inoculated with a spore suspension of Aureobasidium pullulans. The plates were examined for zones of inhibition and surface growth after three weeks incubation in a humidity chamber at 27°-28°.
Various quantities of 4,5-dichloro-2-methyl-4-isothiazolin-3-thione were incorporated into a white exterior vinyl acetate paint and tested as described in Example IV.

[2] = test system: E. aerogenes; assay: slimicide for pulp and paper mill water systems, E. aerogenes; assay type: cell-based; conditions: for MIC: Klebsiella aerogenes
Protocol: (§1) Various quantities of a 6% solution of this compound in dimethylformamide were incorporated into 24 ml of a test substrate composed as follows:
(§2) 8.4 g Whatman No. 2 cellulose
(§3) 1.0 g Nutrient Broth, Difco
(§4) 10.0 ml Mersize Rm 70R (Monsanto)
(§5) The samples were inoculated with four different organisms and incubated at 28° C. At weekly intervals the samples were examined for the presence of microbial growth and reinoculated during a total incubation period of four weeks.
(§6) The test of Example V was used to determine the effectiveness of 4,5-dichloro-3-dicyanomethylene-2-methyl-4-isothiazoline as a slimicide.

[3] = test system: P. aeruginosa; assay: slimicide for pulp and paper mill water systems, P. aeruginosa; assay type: cell-based; conditions: for MIC: Pseudomonas aeruginosa, read-out: Minimum inhibitory concentration
Protocol: as §1, §2, §3, §4, §5, §6

[4] = test system: A. niger; assay: slimicide for pulp and paper mill water systems, A. niger; assay type: cell-based; conditions: for MIC: Aspergillus niger, read-out: Minimum inhibitory concentration
Protocol: as §1, §2, §3, §4, §5, §6

[5] = test system: Ps. aeruginosa; assay: preservative for cutting oil emulsions; assay type: cell-based; conditions: for MIC: Pseudomonas aeruginosa; for Minimum Inhibitory Concentration: listed as CH3, Cl, Cl
Protocol: Various aliquots of a 6% solution of the chemical in ethanol were added to cutting oil emulsions prepared by diluting Kutwell 30 cutting oil concentrate 1 to 30 with water. These samples were inoculated with a culture of Ps. aeruginosa and incubated at 28° on a rotary shaker. At weekly intervals the samples were examined for microorganisms and then reinoculated and incubated.

[6] = test system: P. piscarium; assay: slimicide for pulp and paper mill water systems, P. piscarium; assay type: cell-based
Protocol: as §1, §2, §3, §4, §5, §6

[7] = test system: four different organisms; assay: slimicide for pulp and paper mill water systems, overall; assay type: cell-based, P. aeruginosa, E. aerogenes, A. niger, P. Piscarium; conditions: four weeks, 28° C.
Protocol: as §1, §2, §3, §4, §5

[8] = read-out: Zone (zone of inhibition), Conc. 0.25% in vinyl acetate paint, three weeks, 27°-28°
[9] = read-out: Zone (zone of inhibition), Conc. 0.5% in vinyl acetate paint, three weeks, 27°-28°
[10] = Conc. 0.25% in vinyl acetate paint, three weeks, 27°-28°
[11] = Conc. 0.5% in vinyl acetate paint, three weeks, 27°-28°
[12] = read-out: Minimum inhibitory concentration, E. aerogenes, week 1, 28° C.
[13] = read-out: Minimum inhibitory concentration, E. aerogenes, week 2, 28° C.
[14] = read-out: Minimum inhibitory concentration, E. aerogenes, week 3, 28° C.
[15] = read-out: Minimum inhibitory concentration, E. aerogenes, week 4, 28° C.
[16] = 168 h, read-out: Minimum Inhibitory Concentration, cutting oil emulsion, incubation 1 week, 28°
[17] = 336 h, read-out: Minimum Inhibitory Concentration, cutting oil emulsion, incubation 2 weeks, 28°
[18] = read-out: Minimum inhibitory concentration, P. Piscarium, week 1, 28° C.
[19] = read-out: Minimum inhibitory concentration, P. Piscarium, week 2, 28° C.
[20] = read-out: Minimum inhibitory concentration, P. Piscarium, week 3, 28° C.
[21] = read-out: Minimum inhibitory concentration, P. Piscarium, week 4, 28° C.
[22] = 168 h, cutting oil emulsion, incubation 1 week, 28°, read-out: Minimum Inhibitory Concentration
[23] = 336 h, cutting oil emulsion, incubation 2 weeks, 28°, read-out: Minimum Inhibitory Concentration
[24] = 504 h, cutting oil emulsion, incubation 3 weeks, 28°, read-out: Minimum Inhibitory Concentration
[25] = 672 h, cutting oil emulsion, incubation 4 weeks, 28°, read-out: Minimum Inhibitory Concentration

| Compound | zone of inhibition at 0.25 % [1, 8] [mm] | zone of inhibition at 0.5 % [1, 9] [mm] | Surface (growth on the surface of painted square) [1, 10] | Surface (growth on the surface of painted square) [1, 11] | MIC [2, 12] [µg/mL] | MIC [2, 13] [µg/mL] | MIC [2, 14] [µg/mL] | MIC [2, 15] [µg/mL] | Minimum Inhibitory Concentration ([3]; P. aeruginosa, week 2, 28° C.) [µg/mL] | Minimum Inhibitory Concentration ([3]; P. aeruginosa, week 3, 28° C.) [µg/mL] | Minimum Inhibitory Concentration ([3]; P. aeruginosa, week 4, 28° C.) [µg/mL] | MIC [3] [µg/mL] | Minimum Inhibitory Concentration ([4]; A. niger, week 2, 28° C.) [µg/mL] | Minimum Inhibitory Concentration ([4]; A. niger, week 3, 28° C.) [µg/mL] | Minimum Inhibitory Concentration ([4]; A. niger, week 4, 28° C.) [µg/mL] | MIC [4] [µg/mL] | MIC [5, 16] [µg/mL] | MIC [5, 17] [µg/mL] | MIC [6, 18] [µg/mL] | MIC [6, 19] [µg/mL] | further results |
| --- | --- | --- | --- | --- | --- | --- | --- | --- | --- | --- | --- | --- | --- | --- | --- | --- | --- | --- | --- | --- | --- |
| Cn1sc(Cl)c(Cl)c1=S [No. 1 (Table VIII), 4,5-Dichloro-2-methyl-4-isothiazolin-3-thione] | 20 | 20 | no growth | no growth | < 8 | < 8 | 16 (≈ 80 µM) | 16 (≈ 80 µM) | 16 | 16 | 16 | 16 (≈ 80 µM) | < 8 | < 8 | < 8 | < 8 | < 16 | 62 (≈ 310 µM) | < 8 | < 8 | MIC ([5]; 504 h, read-out: Minimum Inhibitory Concentration, cutting oil emulsion, incubation 3 weeks, 28°): 62 µg/mL (≈ 310 µM); MIC ([5]; 672 h, read-out: Minimum Inhibitory Concentration, cutting oil emulsion, incubation 4 weeks, 28°): 62 µg/mL (≈ 310 µM); MIC [6, 20]: < 8 µg/mL; MIC [6, 21]: 16 µg/mL (≈ 80 µM) |
| C[n+]1sc(Cl)c(Cl)c1Cl [No. 2 (Table I), 2-Methyl-3,4,5-trichloroisothiazolium methylsulfate] | – | – | None | None | 3.9 | 3.9 | 3.9 | 3.9 | 7.8 | 7.8 | 7.8 | 7.8 | 3.9 | 3.9 | 3.9 | 3.9 | – | – | 3.9 | 3.9 | Zone (zone of inhibition) [1, 10]: 0 mm; Zone (zone of inhibition) [1, 11]: > 20 mm; Minimum Inhibitory Concentration ([5]; cutting oil emulsion, incubation 1 week, 28°, O3SOMe): < 2 µg/mL; Minimum Inhibitory Concentration ([5]; cutting oil emulsion, incubation 2 weeks, 28°, O3SOMe): < 2 µg/mL; Minimum Inhibitory Concentration ([5]; cutting oil emulsion, incubation 3 weeks, 28°, O3SOMe): < 16 µg/mL; Minimum Inhibitory Concentration ([5]; cutting oil emulsion, incubation 4 weeks, 28°, O3SOMe): < 16 µg/mL; MIC [6, 20]: 3.9 µg/mL; MIC [6, 21]: 3.9 µg/mL; concentration effective as a slimicide [7]: < 0.01% |
| C[n+]1scc(Cl)c1Cl [No. 22 (Table I), 3,4-Dichloro-2-methylisothiazolium fluorosulfonate] | 0 | 0 | – | – | – | – | – | – | – | – | – | – | – | – | – | – | 32 | 32 | – | – | Minimum Inhibitory Concentration ([5]; cutting oil emulsion, incubation 3 weeks, 28°, H, O3SF): 125 µg/mL; Minimum Inhibitory Concentration ([5]; cutting oil emulsion, incubation 4 weeks, 28°, H, O3SF): 250 µg/mL |
| C[n+]1sc(Cl)c(C#N)c1Cl [No. 26 (Table I), 4-Cyano-3,5-dichloro-2-methylisothiazolium fluorosulfonate] | – | – | – | – | – | – | – | – | – | – | – | – | – | – | – | – | – | – | – | – | zone of inhibition at 0.25 % ([1]; Conc. 0.25% in vinyl acetate paint, three weeks, 27°-28°, read-out: Zone (zone of inhibition)): 0 mm; zone of inhibition at 0.5 % ([1]; Conc. 0.5% in vinyl acetate paint, three weeks, 27°-28°, read-out: Zone (zone of inhibition)): 0 mm; MIC [5, 22]: < 16 µg/mL; MIC [5, 23]: 125 µg/mL; MIC [5, 24]: 250 µg/mL; MIC [5, 25]: 250 µg/mL |
| CN1SC(Cl)=C(Cl)C1=C(C#N)C#N [drawing 12 CH3, Cl, Cl, 4,5-dichloro-3-dicyanomethylene-2-methyl-4-isothiazoline] | – | – | – | – | – | – | – | – | 250 | 250 | 250 | – | – | – | – | – | – | – | – | – | Minimum Inhibitory Concentration ([2]; E. aerogenes, week 2, 28° C.): 250 µg/mL; Minimum Inhibitory Concentration ([2]; E. aerogenes, week 3, 28° C.): 250 µg/mL; Minimum Inhibitory Concentration ([2]; E. aerogenes, week 4, 28° C.): 250 µg/mL; MIC ([2]; E. aerogenes, week 1, 28° C., read-out: Minimum inhibitory concentration): 250 µg/mL (≈ 1080 µM); MIC ([3]; P. aeruginosa, week 1, 28° C.): 250 µg/mL (≈ 1080 µM); MIC ([4]; A. niger, week 1, 28° C.): 250 µg/mL (≈ 1080 µM); MIC ([4]; A. niger, week 2, 28° C.): 500 µg/mL (≈ 2150 µM); MIC ([4]; A. niger, week 3, 28° C.): 500 µg/mL (≈ 2150 µM); MIC ([4]; A. niger, week 4, 28° C.): 500 µg/mL (≈ 2150 µM); MIC [5, 22]: 125 µg/mL (≈ 539 µM); MIC [5, 23]: 125 µg/mL (≈ 539 µM); MIC [5, 24]: 250 µg/mL (≈ 1080 µM); MIC [5, 25]: 250 µg/mL (≈ 1080 µM); MIC ([6]; P. Piscarium, week 1, 28° C., read-out: Minimum inhibitory concentration): 250 µg/mL (≈ 1080 µM); MIC ([6]; P. Piscarium, week 2, 28° C., read-out: Minimum inhibitory concentration): 250 µg/mL (≈ 1080 µM); MIC ([6]; P. Piscarium, week 3, 28° C., read-out: Minimum inhibitory concentration): 250 µg/mL (≈ 1080 µM); MIC ([6]; P. Piscarium, week 4, 28° C., read-out: Minimum inhibitory concentration): 500 µg/mL (≈ 2150 µM) |
